The values below come from EP2141163A1, “Substituted thiazolidinones, their production and utilisation as medicine” (Bayer Schering Pharma Aktiengesellschaft, priority 2008, dated 2010).

In one assay the test system is NCI-H460. In words: Proliferation assay (crystal violet staining), NCI-H460. The format is cell-based, human. The settings on record: Homo sapiens, read-out: Inhibition IC50 [M] (NCI-H460). The procedure: (§1) Kultivierte humane Tumorzellen (MCF7, […] menschliche Mammakarzinomazellen, bezogen von ATCC HTB22; NCI-H460, menschliche nicht kleinzellige Lungenkarzinomazellen, ATCC HTB-177; DU 145, hormonunabhängige menschliche Prostatakarzinomazellen, ATCC HTB-81; HeLa-MaTu, humane Cervixkarzinomazellen, bezogen von EPO-GmbH, Berlin,) werden in einer Dichte von 5000 (MCF7, DU145) bzw. 3000 (NCI-H460, HeLa-MaTu) Zellen/Messpunkt in einer 96-Loch Multititerplatte in 200 µl des entsprechenden Wachstumsmediums ausplattiert. Nach 24 Stunden werden die Zellen einer Platte (Nullpunkt-Platte) mit Kristallviolett gefärbt (s.u.), während das Medium der anderen Platten durch frisches Kulturmedium (200 µl), dem die Testsubstanzen in verschiedenen Konzentrationen (0 µM, sowie im Bereich 0,01 - 30 µM; die finale Konzentration des Lösungsmittels Dimethylsulfoxid beträgt 0,5%) zugesetzt sind, ersetzt. Die Zellen werden für 4 Tage in Anwesenheit der Testsubstanzen inkubiert. Die Zellproliferation wird durch Färbung der Zellen mit Kristallviolett bestimmt: Die Zellen werden durch Zugabe von 20 µl/Messpunkt einer 11%igen Glutaraldehyd-Lösung 15 min bei Raumtemperatur fixiert. Nach dreimaligem Waschen der fixierten Zellen mit Wasser werden die Platten bei Raumtemperatur getrocknet. Die Zellen werden durch Zugabe von 100 µl/Messpunkt einer 0,1%igen Kristallviolett-Lösung (pH durch Zugabe von Essigsäure auf pH3 eingestellt) gefärbt. Nach dreimaligem Waschen der gefärbten Zellen mit Wasser werden die Platten bei Raumtemperatur getrocknet. Der Farbstoff wird durch Zugabe von 100 µl/Messpunkt einer 10%igen Essigsäure-Lösung gelöst. Die Extinktion wird photometrisch bei einer Wellenlänge von 595 nm bestimmt. Die prozentuale Änderung des Zellwachstums wird durch Normalisierung der Messwerte auf die Extinktionwerte der Nullpunktplatte (=0%) und die Extinktion der unbehandelten (0 µM) Zellen (=100%) berechnet. IC50-Werte werden nach einer 4-Parameterkurvenanpassung mit Hilfe eines Firmeneigenen Computerprogramms berechnet.

The test system of a further assay is DU145. Nature of the assay: Proliferation assay (crystal violet staining), DU145. The format is cell-based, human. The settings on record: Homo sapiens, read-out: Inhibition IC50 [M] (DU145). As for the experimental part: as §1
A further assay has as its system MCF-7. Nature of the assay: Proliferation assay (crystal violet staining), MCF-7. It is filed as cell-based, human. The settings on record: Homo sapiens, read-out: Inhibition IC50 [M] (MCF-7). As for the experimental part: as §1
In the next assay the target is T1, PLK-1 (Homo sapiens, UniProt P53350).
T1 construct: Fusionsprotein bestehend aus GST und Plk (Kinase Domäne 33-345; MW 36 kDa, conc 0,8 µg/µl); GST; made in house; host or cells: Hi5 insect cells
T1 sequence (P53350 33-345): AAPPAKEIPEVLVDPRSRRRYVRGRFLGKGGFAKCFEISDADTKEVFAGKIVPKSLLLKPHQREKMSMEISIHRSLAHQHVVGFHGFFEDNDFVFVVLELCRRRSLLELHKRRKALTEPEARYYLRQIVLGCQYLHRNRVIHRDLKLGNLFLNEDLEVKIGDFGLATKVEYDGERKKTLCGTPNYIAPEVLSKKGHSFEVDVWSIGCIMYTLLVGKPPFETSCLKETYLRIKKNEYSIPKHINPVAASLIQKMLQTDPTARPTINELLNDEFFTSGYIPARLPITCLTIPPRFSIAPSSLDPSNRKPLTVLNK
In words: PLK-1 enzyme assay at 10 mM ATP (indirect HTRF assay). It is filed as biochemical. The settings on record: read-out: Inhibition PLK-1 IC50 [M] (10 mM ATP). The procedure: PLK Enzym-Assay (10 mM ATP)
Für den Kinaseassay wird aus Insektenzellen (Hi5) exprimiertes, durch Glutathion-Sepharose-Affinitätschromatographie und anschließender Gel-filtration (Suerdex 75) gereinigtes rekombinantes Fusionsprotein bestehend aus GST und Plk (Kinase Domäne 33-345; MW 36 kDa, conc 0,8 µg/µl) verwendet. Aliqots hiervon werden in flüssigem Stickstoff weggefroren und bei -80°C gelagert und nach dem Auftauen nur einmal verwendet.
Bei dem verwendeten Assay handelt es sich um einen indirekten HTRF-Assay, bei dem folgende Materialien und Verfahrensweisen zum Einsatz kamen. Als Substrat für die Kinasereaktion wird das biotinylierte Peptid Btn-Ahx-KKLNRTLSFAEPG-Amid x TFA, von Biosyntan, Probennr.: 6178.1 (C-Terminus in Amidform) verwendet. Hierbei handelt es sich um eine artifizielle Sequenz, die von keinem bekannten Protein abgeleitet wurde.
50 nl der in 100% Dimethylsulfoxid (DMSO) gelösten Testverbindungen (Endkonzentrationen : 0 µM und Konzentrationen im Bereich von 0,001 - 20 µM) werden mit 2 µl Enzym Arbeitslösung (0,039 ng/µl Plk-1 im Arbeitspuffer [25 mM MgCl2; 1mM DTT; 50 mM Hepes pH 7,0; 0,01% NP40; 1x Complete; 0,05% BSA] für 30 min vorinkubiert. Anschließend wird die Kinase-Reaktion durch Zugabe von 3 µl Substratlösung [16,7 mM Adenosintriphosphate (ATP) und 1,4 µM Substratpeptid (Biotin-Ttds- KKLNRTLSFAEPG -NH2)] in Arbeitspuffer gestartet, und nach 30 min durch Zugabe einer Abstopp-Lösung (100 mM EDTA, 100 mM Hepes pH 7,5, 800 mM Potassiumfluoride, 0,12% BSA, 0,4 µM SA-XLent (0,05 µM, von CIS bio international, Marcoule, Frankreich), Eu^3+ Cryptate-conjugated Rabbit anti-Mouse IgG (1,5 nM; ein mit Europiumkryptat markierter Anti-Maus-IgG-Antikörper von CIS bio international, Marcoule, Frankreich), 1 nM Anti-phospho-Serine Kinase (ein phospho-spezifischer Antikörper von Upstate Biotechnology, Dundee, Schottland), gestoppt, und bei 4°C über Nacht inkubiert. Danach wird die Menge des phosphorylierten Substratpeptids durch Messung des Resonanzenergietransfers vom Europium-markierten Antikörperkomplex zum Streptavidine-XLent bestimmt. Zu diesem Zweck wird die Fluoreszenzemission bei 620 nm und 665 nm nach Anregung bei 350 nm in einem HTRF-Messgerät, z. B. Rubystar (BMG Labtechnologies, Offenburg, Deutschland) oder Viewlux (Perkin-Elmer), bestimmt. Das Verhältnis der Emissionen bei 665 nm und bei 620 nm wird als Maß für die Menge des phosphorylierten Substratpeptids verwendet. Die Daten werden normalisiert (Enzymreaktion ohne Inhibitor = 0 % Inhibition, alle anderen Assaykomponenten, aber kein Enzym = 100 % Inhibition), und IC50-Werte werden durch einen 4 Parameter-Fit mit einer hauseigenen Software berechnet.
On the technique in general: Time-resolved FRET reads energy transfer from a long-lived donor to a nearby acceptor.

Where [1] appears, read: 96 h, tumour cell proliferation, 4 days incubation.
Where [2] appears, read: DU-145, 96 h, tumour cell proliferation, 4 days incubation.
Setting [3] is: MCF7, 96 h, tumour cell proliferation, 4 days incubation.

Where two headings read alike, the source gives them in different places.

What is called IC50 is the midpoint of a concentration-inhibition curve. For `CCn1c(=O)c(=CNc2ccc3c(Cl)cn(C4CCN(C)CC4)c3c2)s/c1=C(/C#N)C(=O)NCC#N` [B153], the IC50 turned out to be 5.9e-07 M in the assay with NCI-H460 (setting [1]), 1.4e-07 M in the assay with DU145 (setting [2]), 4.2e-07 M in the assay with MCF-7 (setting [3]) and 1e-09 M at PLK-1.
For `CCn1c(=O)c(=CNc2ccc3ccn(C4CC(C)(C)N(C)C(C)(C)C4)c3c2)s/c1=C(/C#N)C(=O)NCC#N` [B162], in that order: 3.7e-08 M, 3.5e-08 M, 1.4e-07 M and 3.7e-09 M.
For `CCn1c(=O)c(=CNc2ccc3c(Cl)cn([C@H]4CC[C@H](N(C)C)CC4)c3c2)s/c1=C(/C#N)C(=O)NCC#N` [B165] the same measures were 6.1e-07 M, 1.8e-07 M, 1.7e-07 M and 1.3e-09 M.
As for `CCn1c(=O)c(=CNc2ccc3ccn(C4CCN(C)CC4)c3c2)s/c1=C(/C#N)C(=O)NC(c1ccco1)C(F)(F)F` (stereo not drawn) [B176], the 50% inhibitory concentration (IC50) in the assay with NCI-H460 (setting [1]) is 3.9e-07 M; in the assay on DU145 (setting [2]), 2.1e-07 M; in the assay on MCF-7 (setting [3]) it was 1.2e-07 M; on PLK-1, 6.2e-08 M.
Take `CCn1c(=O)c(=CNc2ccc3c(C(=O)C(C)(C)C)cn(C4CCN(C)CC4)c3c2)s/c1=C(/C#N)C(=O)NCC#N` [B183]: the IC50 was 3.2e-07 M in the assay on NCI-H460 (setting [1]), 1.3e-07 M in the assay with DU145 (setting [2]), 1.6e-07 M with MCF-7 (setting [3]) and 4.2e-09 M at PLK-1.
`CCn1c(=C(C#N)C(=O)NCC(F)(F)F)sc(=CNc2cccc(CCN3CCCC3)c2)c1=O` [Beispiel 30 aus PCT/EP2005/013418, reference compound]: the IC50 with NCI-H460 (comparison with prior art (Tabelle 4)) stood at 9e-07 M; with DU145 (DU-145, comparison with prior art (Tabelle 4)), 6e-07 M; with MCF-7 (MCF7, comparison with prior art (Tabelle 4)), 7e-07 M; at PLK-1 (comparison with prior art (Tabelle 3)), 1.1e-07 M.
